Tests used:
miR-335-5p = assay: Relative expression of miR-335-5p by RT-PCR in endothelial cells; type: cell-based, human
Method: (§1) Human umbilical vein endothelial cells (HUVECs) were cultured in EBM-2 (Lonza) and THP-1 monocytes (ATCC) were grown in RPM. Human coronary microvascular endothelial cells (HCMECs) (Lonza) were cultured in EBM (Lonza). For experimental treatments, HUVECs and HMVECs (passages 3 to 8) were grown to 70-90% confluence. Simvastatin (Sigma) was activated to its active form as previously described. Atorvastatin (Sigma) was solubilized in DMSO and used at 10 μM concentration. Transient transfection of plasmids was performed with Fugene HD (Promega) according to the manufacturer's instructions. For small interfering RNA (Invitrogen) and miR-335-5p mimic (Dharmacon) transfections, each oligonucleotide formulation and respective controls (control siRNA: 12935112 (Invitrogen), miRNA mimic control: 0010000105 (Dharmacon), 50 nM) were complexed with Lipofectamine RNAiMAX (Invitrogen) according to the manufacturer's instructions.
(§2) Total RNA was extracted with the miRNeasy Mini kit (Qiagen). […] RT-PCR was performed with TaqMan probes for genes and miRNAs (ThermoFisher), or SYBR green assays for genes (Bio-Rad). All miRNA data were normalized to the internal control small RNAs U6 for human samples. For the mRNA samples, ribosomal 18S was used as an internal control. Individual RT-PCRs were performed on a […] (Bio-Rad) according to the manufacturer's instructions.

MEST = assay: Relative mRNA expression of MEST by RT-PCR in endothelial cells; type: cell-based, human
Method: as §1, §2

CHFR = assay: Relative mRNA and protein expression of CHFR (quantitative PCR, western blot)
miR335 = miR335 inhibitor given to mice on 60% high fat diet; type: in vivo; details: 60% HFD, 5 mg/kg IP, vs control inhibitor
Method: FIG. 14 is a schematic outlining time course of an experiment comparing animals administered miR335 inhibitors to control, on a high fat diet. The mice were injected 5 mg/kg of miR335 inhibitor or its control twice a week for 4 weeks. Nonproprietary in vivo grade miRNA inhibitor purchased from Qiagen/Exiqon. Sequence: […] (SEQ ID NO:3; 100% complementary to […]).
The mice are subject to 6 weeks of 60% HFD. 5 mg/kg of miR335 inhibitor and its control was given to mice by IP injection. 2 weeks after, HFD was started.
The mir335−/− mice and Apoe−/− mice have been previously described. All animals were maintained on a C57BL/6 background. For mice fed a high-fat diet, mice were administered a 60% fat diet (TD-06414, Envigo) or 40% fat diet with 1.25% added cholesterol (DI2108C, Research Diet) for designated times before tissue and serum were collected.
Frozen 10-μm cryosections from the liver were washed with distilled water for 10 min. After the washing, sections were put into Eosin solution for 2 min. After rinsing with distilled water, sections were put into Hematoxylin solution for 5 min. After washing with distilled water for 15 min, the slides were mounted with DPX mountant (Sigma). Sections were imaged using bright-field microscopy.
Plasma was assessed for alanine aminotransferase (ALT) (Pointe Scientific) following the manufacturer's instructions. Briefly, 20 μl of each plasma sample was added in the 200 μl of the reagent and incubated at 37° C. After 1 min incubation, samples were put on the plate and the plate was read at 340 nm with a microplate reader (BioTek Synergy 2). The ALT values were calculated according to the manufacturer's instructions.

| Molecule | miR-335 expression (miR-335-5p; HCMECs) | miR-335 expression (miR-335-5p; HUVECs) | MEST expression (MEST; HCMECs) | MEST expression (MEST; HUVECs) | CHFR mRNA and protein expression (CHFR; HCMECs) | CHFR mRNA and protein expression (CHFR; HUVECs) | elevation in serum ALT associated with high fat diet (miR335) | fat accumulation in the liver (miR335) | liver histology (miR335) | liver weight (miR335) | weight gain associated with a high fat diet (miR335) |
| --- | --- | --- | --- | --- | --- | --- | --- | --- | --- | --- | --- |
| CC(C)c1c(C(=O)Nc2ccccc2)c(-c2ccccc2)c(-c2ccc(F)cc2)n1CC[C@@H](O)C[C@@H](O)CC(=O)O [atorvastatin] | significant decrease | significant decrease | significantly downregulated | significantly downregulated | significantly upregulated | significantly upregulated | – | – | – | – | – |
| miR335 inhibitor: Nonproprietary in vivo grade miRNA inhibitor purchased from Qiagen/Exiqon; sequence ACATTTTTCGTTATTGCTCTTGA (SEQ ID NO:3), complementary to miR-335-5p (in vivo grade miRNA inhibitor from Exiqon, chemistry not given here, further chemistry not given here) | – | – | – | – | – | – | attenuated | attenuated | preserved | decreased | suppressed |

Source: patent publication US20220008452A1, “COMPOSITIONS AND METHODS FOR TREATING OR PREVENTING NASH, NAFLD, DIABETES, ATHEROSCLEROSIS, AND/OR OBESITY” (YALE UNIVERSITY, priority 2018, published 2022)
